The target of this assay is T1, delF508-CFTR (Homo sapiens, UniProt P13569, DEL508-508).
T1 construct: expressed in transfected cells
As to the kind of experiment: Measurement of delF508-CFTR-HRP surface expression in CFBE41o- cells. It counts as cell-based. The conditions noted are these: for Emax: CFBE41o-, efficacy relative to reference compound 3-(6-(1-(2,2-difluorobenzo[d][1,3]dioxol-5-yl)cyclopropane-1-carboxamido)-3-methylpyridin-2-yl)benzoic acid, read-out: DelF508-CFTR-HRP Amax %; for EC50: HRP-tagged delF508-CFTR surface expression, CFBE41o- cells, 24 h with compound, 10-point curve, highest concentration 10 μM. From the text:
Measurement of deIF508-CFTR-HRP Surface Expression in CFBE41o-Cells
This assay quantifies the cell surface expressions of the mutant CFTR channel using an extracellular HRP tag.
A cellular assay was developed to measure surface expression of horseradish peroxidase (HRP) tagged delF508-CFTR in the human bronchial epithelial immortalized CFBE41o-cell line (Phuan, P. W., et al, (2014) Molecular Pharmacology 86:42-51). Specifically, the HRP sequence was inserted into the fourth extracellular loop of delF508-CFTR and stably expressed in CFBE41o-cells. Cells were seeded in 384 well plate at a density of 5000 cells/well and incubated at 37° C. for 12 to 24 hours in medium (Gibco MEM #11095, 10% FBS, 10 mM HEPES, […], 200 μg/mL G418, 3 μg/mL Puromycin). The delF508-CFTR-HRP expression was induced with 500 ng/mL doxycycline (Sigma D-9891, dissolved in H2O and sterile filtered) in medium and the cells were incubated at 37° C. for 48 h. Old medium was removed and fresh medium was added containing 500 ng/mL doxycycline and unknown test compound at required test concentration in DMSO, not exceeding 0.5% final DMSO concentration. The highest concentration tested was 10 μM with a 10-point concentration response curve using a 3-fold dilution. After addition of compounds, the cells were incubated for 24 h at 37° C. On the final day, cells were washed four times in PBS containing 1 mM MgCl2 and 0.1 mM CaCl2. HRP-Substrate (SuperSignal ELISA Pico, Fisher #37069) 20 μl/well was added and the luminescence signal was determined (Viewlux, Perkin Elmer). Light was emitted upon addition of exogenous HRP-Substrate only when delF508-CFTR-HRP reached the cell surface and the HRP tag was accessible to the HRP-Substrate (note: HRP-Substrate cannot cross the lipid bilayer to reach delF508-CFTR-HRP misfolded within the cell).
The median activity for the lowest concentration of the compounds on each assay plate was calculated and this value was used to normalize the signal for each well on the respective plate. Three replicates at each concentrations for every compound were run to determine one EC50. The median value was determined and used to calculate compound activities as described below. Effective half maximal values (EC50) were calculated for each compound by performing logistic regression on measured dose-response data points using the equation: […]
where “Y” is the observed activity, “Bottom” is the lowest observed value, “Top” is the highest observed value, and the “Hill coefficient” gives the largest absolute value of the slope. The curve fitting is carried out by a curve fitting program implemented at GNF using Matlab (Mathworks).
The dose response curves also were used to calculate Fold Change (FC) using the equation: […]
Compound efficacy relative to the reference compound 3-(6-(1-(2,2-difluorobenzo[d][1,3]dioxol-5-yl)cyclopropane-1-carboxamido)-3-methylpyridin-2-yl)benzoic acid was determined using the following formula: […]

Among the data in patent US20220071971A1, “MACROCYCLIC COMPOUNDS AND THEIR USE IN THE TREATMENT OF DISEASE” (NOVARTIS AG, priority 2018, published 2022) are Emax and EC50 values, retold here.

Structures are written as SMILES.

T1 sequence (P13569 with tags, fused parts or gaps DEL508-508): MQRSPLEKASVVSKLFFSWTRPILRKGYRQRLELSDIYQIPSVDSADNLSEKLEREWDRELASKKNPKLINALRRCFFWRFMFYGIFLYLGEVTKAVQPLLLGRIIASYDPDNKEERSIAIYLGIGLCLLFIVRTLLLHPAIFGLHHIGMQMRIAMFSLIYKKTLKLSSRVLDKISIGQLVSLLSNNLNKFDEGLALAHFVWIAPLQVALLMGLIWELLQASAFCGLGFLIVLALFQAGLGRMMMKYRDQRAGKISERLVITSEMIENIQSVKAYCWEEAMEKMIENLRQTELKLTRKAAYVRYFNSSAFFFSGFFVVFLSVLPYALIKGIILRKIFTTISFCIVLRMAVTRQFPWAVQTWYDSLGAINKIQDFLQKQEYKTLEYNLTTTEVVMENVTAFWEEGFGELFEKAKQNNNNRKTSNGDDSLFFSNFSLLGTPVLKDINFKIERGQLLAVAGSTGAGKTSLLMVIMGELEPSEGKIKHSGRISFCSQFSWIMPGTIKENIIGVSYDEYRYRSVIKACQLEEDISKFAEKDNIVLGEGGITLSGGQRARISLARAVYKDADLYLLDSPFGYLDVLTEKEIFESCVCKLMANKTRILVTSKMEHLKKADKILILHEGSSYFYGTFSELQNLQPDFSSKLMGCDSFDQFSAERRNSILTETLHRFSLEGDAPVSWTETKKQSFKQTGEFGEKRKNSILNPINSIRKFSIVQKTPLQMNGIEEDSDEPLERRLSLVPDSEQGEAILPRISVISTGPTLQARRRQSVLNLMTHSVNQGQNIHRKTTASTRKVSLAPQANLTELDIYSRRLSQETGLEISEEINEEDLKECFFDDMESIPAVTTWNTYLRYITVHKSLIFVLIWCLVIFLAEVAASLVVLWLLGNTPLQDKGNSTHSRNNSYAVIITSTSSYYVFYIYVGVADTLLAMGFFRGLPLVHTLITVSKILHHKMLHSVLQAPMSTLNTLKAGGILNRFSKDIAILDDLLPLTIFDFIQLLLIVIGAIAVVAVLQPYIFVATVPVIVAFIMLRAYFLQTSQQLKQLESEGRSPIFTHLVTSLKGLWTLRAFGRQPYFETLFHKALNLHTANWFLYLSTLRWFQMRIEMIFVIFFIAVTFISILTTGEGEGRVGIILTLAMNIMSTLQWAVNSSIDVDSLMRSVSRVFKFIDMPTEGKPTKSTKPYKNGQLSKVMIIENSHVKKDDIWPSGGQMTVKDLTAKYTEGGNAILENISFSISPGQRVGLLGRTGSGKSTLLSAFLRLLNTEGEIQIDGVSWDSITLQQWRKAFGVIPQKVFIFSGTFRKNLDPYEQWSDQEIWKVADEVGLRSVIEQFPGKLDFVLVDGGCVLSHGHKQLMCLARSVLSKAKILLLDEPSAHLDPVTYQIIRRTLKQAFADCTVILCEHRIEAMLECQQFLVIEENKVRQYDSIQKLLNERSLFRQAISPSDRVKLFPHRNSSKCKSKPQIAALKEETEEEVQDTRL

As to `O=S1(=O)Nc2ccc(C(F)(F)F)c(n2)-c2ccccc2CCCCN(CCCO)c2cccc1n2` [Compound 20, 6-(3-hydroxypropyl)-2^3-(trifluoromethyl)-4-thia-3,6-diaza-2,5(2,6)-dipyridina-1(1,2)-benzenacyclodecaphane 4,4-dioxide], the Emax is 337% and the concentration giving a half-maximal response (EC50) (as a rule, the concentration needed to bring the measured effect to its halfway point) was 0.36 µM.
On to `CC(C)(CN1CCCCCc2ccc(F)cc2-c2nc(ccc2C(F)(F)F)NS(=O)(=O)c2cccc1n2)C(=O)O` [Compound 96, 3-(1^5-fluoro-4,4-dioxido-2^3-(trifluoromethyl)-4-thia-3,6-diaza-2,5(2,6)-dipyridina-1(1,2)-benzenacycloundecaphane-6-yl)-2,2-dimethylpropanoic acid], for which the Emax amounted to 792% and the EC50 was determined as 0.431 µM.
With `O=C(O)C1(CN2CCCCCc3ccccc3-c3nc(ccc3C(F)(F)F)NS(=O)(=O)c3cccc2n3)CC1` [Compound 94, 1-((4,4-dioxido-2^3-(trifluoromethyl)-4-thia-3,6-diaza-2,5(2,6)-dipyridina-1(1,2)-benzenacycloundecaphane-6-yl)methyl)cyclopropane-1-carboxylic acid], the Emax stood at 737% and the 50% effective concentration (EC50) turned out to be 0.566 µM.
In the case of `O=C(O)CCCN1CCCCCCCCCc2ccccc2-c2nc(ccc2C(F)(F)F)NS(=O)(=O)c2cccc1n2` [Compound 66, 4-(4,4-dioxido-2^3-(trifluoromethyl)-4-thia-3,6-diaza-2,5(2,6)-dipyridina-1(1,2)-benzenacyclopentadecaphane-6-yl)butanoic acid], the EC50 worked out at 0.224 µM.
Regarding `CCOC(=O)CN1CCCCOc2ccccc2-c2nc(ccc2C(F)(F)F)NS(=O)(=O)c2cccc1n2` [Compound 3, ethyl 2-(4,4-dioxido-2^3-(trifluoromethyl)-11-oxa-4-thia-3,6-diaza-2,5(2,6)-dipyridina-1(1,2)-benzenacycloundecaphane-6-yl)acetate], the Emax amounted to 361% and the 50% effective concentration (EC50) is 0.335 µM.
Regarding `O=S1(=O)Nc2ccc(C(F)(F)F)c(n2)-c2ccccc2CCCCCCCCCN(CCCO)c2cccc1n2` [Compound 45, 6-(3-hydroxypropyl)-2^3-(trifluoromethyl)-4-thia-3,6-diaza-2,5(2,6)-dipyridina-1(1,2)-benzenacyclopentadecaphane 4,4-dioxide], the concentration giving a half-maximal response (EC50) was determined as 0.361 µM.
Turning to `O=S1(=O)Nc2ccc(C(F)(F)F)c(n2)-c2ccccc2CCCCCCN(CCCCCO)c2cccc1n2` [Compound 12, 6-(5-hydroxypentyl)-2^3-(trifluoromethyl)-4-thia-3,6-diaza-2,5(2,6)-dipyridina-1(1,2)-benzenacyclododecaphane 4,4-dioxide], the concentration giving a half-maximal response (EC50) was 0.236 µM.
For `O=S1(=O)Nc2ccc(C(F)(F)F)c(n2)-c2cc(F)ccc2CCCCCN(CCCO)c2cccc1n2` [Compound 26, 1^5-fluoro-6-(3-hydroxypropyl)-2^3-(trifluoromethyl)-4-thia-3,6-diaza-2,5(2,6)-dipyridina-1(1,2)-benzenacycloundecaphane 4,4-dioxide], the EC50 turned out to be 0.668 µM.
Regarding `O=C(O)CCN1CCCCOc2ccc(F)cc2-c2nc(ccc2C(F)(F)F)NS(=O)(=O)c2cccc1n2` [Compound 81, 3-(1^5-fluoro-4,4-dioxido-2^3-(trifluoromethyl)-11-oxa-4-thia-3,6-diaza-2,5(2,6)-dipyridina-1(1,2)-benzenacycloundecaphane-6-yl)propanoic acid], the Emax stood at 527% and the EC50 was determined as 2.33 µM.
Take `O=S1(=O)Nc2ccc(C(F)(F)F)c(n2)-c2cccnc2NCCCCNc2cccc1n2` [Compound 5, 2^3-(trifluoromethyl)-4-thia-3,6,11-triaza-1(3,2),2,5(2,6)-tripyridinacycloundecaphane 4,4-dioxide]: the Emax amounted to 159% and the 50% effective concentration (EC50) was found to be 1.62 µM.
As to `O=S1(=O)Nc2ccc(Cl)c(n2)-c2ccccc2CCCCCOc2cccc1n2` [Compound 113, 2^3-chloro-6-oxa-4-thia-3-aza-2,5(2,6)-dipyridina-1(1,2)-benzenacycloundecaphane 4,4-dioxide], the Emax came to 664% and the EC50 came out at 2.15 µM.
`CN1CCN(CCN2CCCCCc3ccccc3-c3nc(ccc3C(F)(F)F)NS(=O)(=O)c3cccc2n3)CC1` [Compound 125, 6-(2-(4-methylpiperazin-1-yl)ethyl)-2^3-(trifluoromethyl)-4-thia-3,6-diaza-2,5(2,6)-dipyridina-1(1,2)-benzenacycloundecaphane 4,4-dioxide]: the Emax came to 162% and the EC50 amounted to 0.931 µM.
Regarding `O=C(O)CCCCN1CCCCCCc2ccccc2-c2nc(ccc2C(F)(F)F)NS(=O)(=O)c2cccc1n2` [Compound 78, 5-(4,4-dioxido-2^3-(trifluoromethyl)-4-thia-3,6-diaza-2,5(2,6)-dipyridina-1(1,2)-benzenacyclododecaphane-6-yl)pentanoic acid], the concentration for a half-maximal effect (EC50) was 0.293 µM.
For `O=C(O)CCN1CCCCCCc2ccccc2-c2nc(ccc2C(F)(F)F)NS(=O)(=O)c2cccc1n2` [Compound 84, 3-(4,4-dioxido-2^3-(trifluoromethyl)-4-thia-3,6-diaza-2,5(2,6)-dipyridina-1(1,2)-benzenacyclododecaphane-6-yl)propanoic acid], the concentration for a half-maximal effect (EC50) was determined as 1.04 µM.
`O=S1(=O)Nc2ccc(C(F)(F)F)c(n2)-c2ccccc2CCCCCCCCN(CCCO)c2cccc1n2` [Compound 43, 6-(3-hydroxypropyl)-2^3-(trifluoromethyl)-4-thia-3,6-diaza-2,5(2,6)-dipyridina-1(1,2)-benzenacyclotetradecaphane 4,4-dioxide]: the concentration for a half-maximal effect (EC50) turned out to be 0.255 µM.
For `CCOC(=O)C(C)(C)CN1CCCCCCc2ccccc2-c2nc(ccc2C(F)(F)F)NS(=O)(=O)c2cccc1n2` [Compound 32, ethyl 3-(4,4-dioxido-2^3-(trifluoromethyl)-4-thia-3,6-diaza-2,5(2,6)-dipyridina-1(1,2)-benzenacyclododecaphane-6-yl)-2,2-dimethylpropanoate], the EC50 came out at 0.295 µM.
On to `O=C(O)CCN1CCCCCCc2ccc(F)cc2-c2nc(ccc2C(F)(F)F)NS(=O)(=O)c2cccc1n2` [Compound 85, 3-(1^5-fluoro-4,4-dioxido-2^3-(trifluoromethyl)-4-thia-3,6-diaza-2,5(2,6)-dipyridina-1(1,2)-benzenacyclododecaphane-6-yl)propanoic acid], for which the EC50 amounted to 0.714 µM.
Still for that read-out and setting: in the case of `O=S1(=O)Nc2ccc(C(F)(F)F)c(n2)-c2ccccc2CCCCCCCCCN(CCCCO)c2cccc1n2` [Compound 42, 6-(4-hydroxybutyl)-2^3-(trifluoromethyl)-4-thia-3,6-diaza-2,5(2,6)-dipyridina-1(1,2)-benzenacyclopentadecaphane 4,4-dioxide] it was 0.219 µM.
For `O=S1(=O)Nc2ccc(C(F)(F)F)c(n2)-c2cccnc2OCCCCCNc2cccc1n2` [Compound 108, 2^3-(trifluoromethyl)-1^2-oxa-4-thia-3,6-diaza-1(3,2),2,5(2,6)-tripyridinacyclododecaphane 4,4-dioxide], the Emax is 443% and the EC50 turned out to be 1.27 µM.
Take `O=S1(=O)Nc2ccc(C(F)(F)F)c(n2)-c2ccccc2CCCCNc2cccc1n2` [Compound 115, 2^3-(trifluoromethyl)-4-thia-3,6-diaza-2,5(2,6)-dipyridina-1(1,2)-benzenacyclodecaphane 4,4-dioxide]: the Emax was found to be 430% and the concentration giving a half-maximal response (EC50) came out at 0.456 µM.
For `O=C(O)CN1CCCCOc2ccccc2-c2nc(ccc2C(F)(F)F)NS(=O)(=O)c2cccc1n2` [Compound 4, 2-(4,4-dioxido-2^3-(trifluoromethyl)-11-oxa-4-thia-3,6-diaza-2,5(2,6)-dipyridina-1(1,2)-benzenacycloundecaphane-6-yl)acetic acid] the same measures were 74.4% and 2.87 µM.
For `O=S1(=O)Nc2ccc(C(F)(F)F)c(n2)-c2ccccc2CCCCCN(CCCCCO)c2cccc1n2` [Compound 15, 6-(5-hydroxypentyl)-2^3-(trifluoromethyl)-4-thia-3,6-diaza-2,5(2,6)-dipyridina-1(1,2)-benzenacycloundecaphane 4,4-dioxide], the Emax worked out at 708% and the concentration for a half-maximal effect (EC50) turned out to be 0.304 µM.
